Laboratory results reported in ChEMBL document CHEMBL4699533, “Compounds from Toddalia asiatica: Immunosuppressant Activity and Absolute Configurations” (J Nat Prod, 2020).
Activity calls are given as the source filed them. The calls are words filed in the database; no cut-off is given here.

What was measured:
[1] = test system: T cell; assay: Inhibition of anti-human CD3/CD28/mAbs-stimulated human T-cell proliferation at 30 uM after 72 hrs by CFSE staining based flow cytometric analysis; type: functional, tissue-based
[2] = Cytotoxicity against human T-cell assessed reduction in cell viability at 30 uM after 72 hrs; type: tissue-based
[3] = Cytotoxicity against human T-cell assessed reduction in cell viability at 10 uM after 72 hrs; type: tissue-based
[4] = test system: T cell; assay: (§1) Inhibition of anti-human CD3/CD28/mAbs-stimulated human T-cell proliferation after 72 hrs by CFSE staining based flow cytometric analysis; type: functional, tissue-based
[5] = as §1; type: functional, tissue-based

Row | SMILES | inhibition [1] | further results
1 | COc1cc2oc(=O)ccc2c(OC)c1C[C@@H](O)C(C)(C)O[C@@H]1O[C@H](CO)[C@@H](O)[C@H](O)[C@H]1O | Active | –
2 | COc1cc(O)c(CCC(=O)O)c(OC)c1CC(O)C(C)(C)O (centres undefined) | Active | –
3 | COc1cc2oc(=O)ccc2c(OC)c1C(=O)O | Active | –
4 | O=C(/C=C/c1ccc(O)cc1)NCCc1ccc(O)cc1 | Active | –
5 | COc1cc2oc(=O)ccc2c(OC)c1C[C@H](O)C(C)(C)O[C@@H]1O[C@H](CO)[C@@H](O)[C@H](O)[C@H]1O | Active | –
6 | COc1ccc([C@@H]2CC(=O)c3c(O)cc(O[C@@H]4O[C@H](CO[C@@H]5O[C@@H](C)[C@H](O)[C@@H](O)[C@H]5O)[C@@H](O)[C@H](O)[C@H]4O)cc3O2)cc1O | Active | –
7 | COc1cc2c[n+](C)c3c4cc5c(cc4ccc3c2cc1OC)OCO5.[Cl-] [NITIDINE CHLORIDE] | – | Activity [2]: Toxic; Activity [3]: Toxic; inhibition [4]: Dose-dependent effect; IC50 [5]: 0.4 µM
8 | COc1cc(C(=O)O)cc(OC)c1O | Active | –
9 | COc1cc2oc(=O)ccc2c(OC)c1CC(O[C@@H]1O[C@H](CO)[C@@H](O)[C@H](O)[C@H]1O)C(C)(C)O (some centres undefined) | Active | –
10 | COc1cc2c(cc1OC)-c1ccc3cc4c(cc3c1N(C)C2)OCO4 | – | Activity [2]: Toxic; inhibition [4]: Dose-dependent effect; IC50 [5]: 6.7 µM
11 | COc1cc(/C=C/C(=O)OC[C@H]2O[C@@H](OC[C@H]3[C@H](CO)Cc4cc(OC)c(O)c(OC)c4[C@@H]3c3cc(OC)c(O)c(OC)c3)[C@H](O)[C@@H](O)[C@@H]2O)cc(OC)c1O | Active | –
12 | COc1cc(/C=C/C(=O)OC[C@H]2O[C@@H](OC[C@@H](Cc3cc(OC)c(O)c(OC)c3)[C@@H](CO)Cc3cc(OC)c(O)c(OC)c3)[C@H](O)[C@@H](O)[C@@H]2O)cc(OC)c1O | Active | –
13 | COc1ccc2c(c1OC)CN(C)CCc1cc3c(cc1C(=O)C2)OCO3 | Active | –
14 | COc1cc2oc(=O)ccc2c(OC)c1CC(O)C(C)(C)O (centres undefined) | Active | –
